Patent US20160038468A1 (priority 2013, published 2016)
≈ marks a conversion by molar mass, not a printed value. Read-outs that look alike come from different tables or passages of the source.

Legend:
Type in all cases: cell-based
[1] = system: Gardnerella vaginalis; assay: Agar dilution MIC (CLSI), Gardnerella vaginalis vaginal isolates; conditions: for Number of strains with indicated MIC: 100 samples
[2] = system: Atopobium vaginae; assay: Agar dilution MIC (CLSI), Atopobium vaginae vaginal isolates; conditions: for Number of strains with indicated MIC: 62 samples
[3] = system: Mobiluncus all species; assay: Agar dilution MIC (CLSI), Mobiluncus all species; conditions: # tested 40
[4] = system: M. curtisii; assay: Agar dilution MIC (CLSI), M. curtisii vaginal isolates; conditions: for Number of strains with indicated MIC: 14 samples; for MIC: read-out: Minimal Inhibitory Concentration (MIC)
[5] = system: Mobiluncus spp; assay: Agar dilution MIC (CLSI), Mobiluncus spp vaginal isolate; conditions: read-out: Minimal Inhibitory Concentration (MIC)
[6] = system: Anaerococcus tetradius; assay: Agar dilution MIC (CLSI), Anaerococcus tetradius vaginal isolates; conditions: for MIC: read-out: Minimal Inhibitory Concentration (MIC); for Number of strains with indicated MIC: 21 samples
[7] = system: Finegoldia magna; assay: Agar dilution MIC (CLSI), Finegoldia magna vaginal isolates; conditions: for MIC: read-out: Minimal Inhibitory Concentration (MIC); for Number of strains with indicated MIC: 20 samples
[8] = system: Megasphaera-like bacteria; assay: Agar dilution MIC (CLSI), Megasphaera-like bacteria vaginal isolates; conditions: for MIC: read-out: Minimal Inhibitory Concentration (MIC); for Number of strains with indicated MIC: 25 samples
[9] = Gardnerella vaginalis, # tested 107
[10] = Fannyhessea vaginae, # tested 62
[11] = Anaerococcus tetradius, # tested 21

## CCC[C@@H]1C[C@@H](C(=O)N[C@@H]([C@H]2O[C@H](SC)[C@H](O)[C@@H](O)[C@H]2O)[C@H](C)Cl)N(C)C1 [Clindamycin]
[1]; # tested 107
  MIC Range: 0.015 to 0.5 µg/mL
[1]; [9]
  MIC50: 0.125 µg/mL (≈ 0.294 µM)
  MIC90: 0.25 µg/mL (≈ 0.588 µM)
[1]; MIC 0.015 μg/ml
  Number of strains with indicated MIC: 1
[1]; MIC 0.03 μg/ml
  Number of strains with indicated MIC: 11
[1]; MIC 0.06 μg/ml
  Number of strains with indicated MIC: 25
[1]; MIC […] μg/ml
  Number of strains with indicated MIC: 1
[2]; Fannyhessea vaginae, read-out: Minimal Inhibitory Concentration (MIC)
  MIC: > 128 µg/mL
[2]; [10]
  MIC50: 0.06 µg/mL (≈ 0.141 µM)
  MIC90: 0.25 µg/mL (≈ 0.588 µM)
[2]; MIC 0.03 μg/ml
  Number of strains with indicated MIC: 28
[2]; MIC 0.06 μg/ml
  Number of strains with indicated MIC: 10
[2]; MIC 8 μg/ml
  Number of strains with indicated MIC: 1
[2]; MIC 16 μg/ml
  Number of strains with indicated MIC: 1
[2]; MIC >[…]
  Number of strains with indicated MIC: 1
[2]; MIC […] μg/ml
  Number of strains with indicated MIC: 1
[3]
  MIC50: 0.125 µg/mL (≈ 0.294 µM)
  MIC90: 0.25 µg/mL (≈ 0.588 µM)
[3]; number (%) of isolates
  Susceptible: 38 (95) μg/ml
[3]; number (%) of isolates, resistance: rifaximin >32, metronidazole >32, clindamycin >8 μg/ml
  Resistant: 2 (5) μg/ml
[4]; MIC 0.06 μg/ml
  Number of strains with indicated MIC: 3
[4]; MIC 32 μg/ml
  Number of strains with indicated MIC: 1
[4]; MIC >[…]
  Number of strains with indicated MIC: 1
[4]; individual isolates recovered from the vagina 2009-2012, one line per isolate (id in c0/c1 of the row)
  MIC: 64 µg/mL (≈ 151 µM)
[4]
  MIC: > 128 µg/mL
[5]
  MIC: 4 µg/mL (≈ 9.41 µM)
[6]; Anaerococcus tetradius, isolate 601098V T
  MIC: 2 µg/mL (≈ 4.71 µM)
[6]; Anaerococcus tetradius, isolate 601103V 21
  MIC: 2 µg/mL (≈ 4.71 µM)
[6]; Anaerococcus tetradius, isolate 601175V I
  MIC: 1 µg/mL (≈ 2.35 µM)
[6]; Anaerococcus tetradius, isolate 601202V 11
  MIC: 2 µg/mL (≈ 4.71 µM)
[6]; Anaerococcus tetradius, isolate 601212V 14
  MIC: 2 µg/mL (≈ 4.71 µM)
[6]; Anaerococcus tetradius, isolate 601221V 12
  MIC: 0.03 µg/mL (≈ 0.0706 µM)
[6]; Anaerococcus tetradius, isolate 601222V 15
  MIC: 0.25 µg/mL (≈ 0.588 µM)
[6]; Anaerococcus tetradius, isolate 601242V 17
  MIC: 4 µg/mL (≈ 9.41 µM)
[6]; Anaerococcus tetradius, isolate 601256V 9
  MIC: 2 µg/mL (≈ 4.71 µM)
[6]; Anaerococcus tetradius, isolate 601305V J
  MIC: 2 µg/mL (≈ 4.71 µM)
[6]; Anaerococcus tetradius, isolate 601326V H
  MIC: 2 µg/mL (≈ 4.71 µM)
[6]; Anaerococcus tetradius, isolate 601340V 25
  MIC: 2 µg/mL (≈ 4.71 µM)
[6]; Anaerococcus tetradius, isolate 601342V N
  MIC: 2 µg/mL (≈ 4.71 µM)
[6]; Anaerococcus tetradius, isolate 601368V 42
  MIC: 2 µg/mL (≈ 4.71 µM)
[6]; Anaerococcus tetradius, isolate 601369V 12
  MIC: 2 µg/mL (≈ 4.71 µM)
[6]; Anaerococcus tetradius, isolate 601401V T
  MIC: 8 µg/mL (≈ 18.8 µM)
[6]; Anaerococcus tetradius, isolate 601429V 15
  MIC: 2 µg/mL (≈ 4.71 µM)
[6]; Anaerococcus tetradius, isolate 601450V 22
  MIC: 1 µg/mL (≈ 2.35 µM)
[6]; Anaerococcus tetradius
  MIC: > 128 µg/mL
[6]; [11]
  MIC50: 2 µg/mL (≈ 4.71 µM)
  MIC90: > 128 µg/mL
[6]; MIC 0.03 μg/ml
  Number of strains with indicated MIC: 1
[6]; MIC 8 μg/ml
  Number of strains with indicated MIC: 1
[6]; MIC >[…]
  Number of strains with indicated MIC: 3
[6]; MIC […]
  Number of strains with indicated MIC: 1
[6]; isolate 601379V 25
  Minimal Inhibitory Concentration (MIC): >128 µg/mL
[6]; isolate 602375V 22
  Minimal Inhibitory Concentration (MIC): >128 µg/mL
[7]; Finegoldia magna, isolate 301303V D
  MIC: 8 µg/mL (≈ 18.8 µM)
[7]; Finegoldia magna, isolate 601205V 39
  MIC: 8 µg/mL (≈ 18.8 µM)
[7]; Finegoldia magna, isolate 601275V c
  MIC: 128 µg/mL (≈ 301 µM)
[7]; Finegoldia magna, isolate 601276V 23
  MIC: 0.5 µg/mL (≈ 1.18 µM)
[7]; Finegoldia magna, isolate 601283V 14
  MIC: 4 µg/mL (≈ 9.41 µM)
[7]; Finegoldia magna, isolate 601295V 25
  MIC: 0.25 µg/mL (≈ 0.588 µM)
[7]; Finegoldia magna, isolate 601298V 30
  MIC: 128 µg/mL (≈ 301 µM)
[7]; Finegoldia magna, isolate 601308V 24
  MIC: 0.25 µg/mL (≈ 0.588 µM)
[7]; Finegoldia magna, isolate 601315V 17
  MIC: 4 µg/mL (≈ 9.41 µM)
[7]; Finegoldia magna, isolate 601315V 17A
  MIC: 4 µg/mL (≈ 9.41 µM)
[7]; Finegoldia magna, isolate 601320V 24
  MIC: 0.5 µg/mL (≈ 1.18 µM)
[7]; Finegoldia magna, isolate 601323V K
  MIC: 0.25 µg/mL (≈ 0.588 µM)
[7]; Finegoldia magna, isolate 601330V c
  MIC: 0.25 µg/mL (≈ 0.588 µM)
[7]; Finegoldia magna, isolate 601335V c1
  MIC: 0.5 µg/mL (≈ 1.18 µM)
[7]; Finegoldia magna, isolate 601340V 27
  MIC: 0.25 µg/mL (≈ 0.588 µM)
[7]; Finegoldia magna, isolate 601359V c
  MIC: 0.25 µg/mL (≈ 0.588 µM)
[7]; Finegoldia magna, isolate 601363V 6
  MIC: 0.03 µg/mL (≈ 0.0706 µM)
[7]; Finegoldia magna, isolate 601367V c
  MIC: 0.5 µg/mL (≈ 1.18 µM)
[7]; Finegoldia magna
  MIC: > 128 µg/mL
[7]; Finegoldia magna, # tested 20
  MIC50: 0.5 µg/mL (≈ 1.18 µM)
  MIC90: 128 µg/mL (≈ 301 µM)
[7]; MIC 0.03 μg/ml
  Number of strains with indicated MIC: 1
[7]; MIC 8 μg/ml
  Number of strains with indicated MIC: 2
[7]; MIC >[…]
  Number of strains with indicated MIC: 2
[7]; isolate 601214V F
  Minimal Inhibitory Concentration (MIC): >128 µg/mL
[8]; 427510 h, isolate 427507 H
  MIC: 0.03 µg/mL (≈ 0.0706 µM)
[8]; # tested 25
  MIC50: 0.03 µg/mL (≈ 0.0706 µM)
  MIC90: 0.03 µg/mL (≈ 0.0706 µM)
  MIC Range: 0.03 to 0.125 µg/mL
[8]; MIC 0.03 μg/ml
  Number of strains with indicated MIC: 24
[8]; MIC […]
  Number of strains with indicated MIC: 1
[8]; isolate 426749 T
  MIC: 0.03 µg/mL (≈ 0.0706 µM)
[8]; isolate 426766 Q
  MIC: 0.03 µg/mL (≈ 0.0706 µM)
[8]; isolate 426788 8a
  MIC: 0.03 µg/mL (≈ 0.0706 µM)
[8]; isolate 426788 C
  MIC: 0.03 µg/mL (≈ 0.0706 µM)
[8]; isolate 427470 10
  MIC: 0.03 µg/mL (≈ 0.0706 µM)
[8]; isolate 427490 2u
  MIC: 0.03 µg/mL (≈ 0.0706 µM)
[8]; isolate 427509 A
  MIC: 0.125 µg/mL (≈ 0.294 µM)
[8]; isolate 427522 8
  MIC: 0.03 µg/mL (≈ 0.0706 µM)
[8]; isolate 600770 O
  MIC: 0.03 µg/mL (≈ 0.0706 µM)
[8]; isolate 600790 N
  MIC: 0.03 µg/mL (≈ 0.0706 µM)
[8]; isolate 600796 V
  MIC: 0.03 µg/mL (≈ 0.0706 µM)
[8]; isolate 600831 9
  MIC: 0.03 µg/mL (≈ 0.0706 µM)
[8]; isolate 600837 18
  MIC: 0.03 µg/mL (≈ 0.0706 µM)
[8]; isolate 600861 P
  MIC: 0.03 µg/mL (≈ 0.0706 µM)
[8]; isolate 602236 E3
  MIC: 0.03 µg/mL (≈ 0.0706 µM)
[8]; isolate 602241 D
  MIC: 0.03 µg/mL (≈ 0.0706 µM)
[8]; isolate 602241 F
  MIC: 0.03 µg/mL (≈ 0.0706 µM)
[8]; isolate 602270 A
  MIC: 0.03 µg/mL (≈ 0.0706 µM)
[8]; isolate 602282 I
  MIC: 0.03 µg/mL (≈ 0.0706 µM)
[8]; isolate 602288 16
  MIC: 0.03 µg/mL (≈ 0.0706 µM)
[8]; isolate 602302 22
  MIC: 0.03 µg/mL (≈ 0.0706 µM)
[8]; isolate 602305 I
  MIC: 0.03 µg/mL (≈ 0.0706 µM)
[8]; isolate 602324 8
  MIC: 0.03 µg/mL (≈ 0.0706 µM)
[8]; isolate 602672 12A
  MIC: 0.03 µg/mL (≈ 0.0706 µM)
